Assay results published in the supplement of paper PMC13380429.

How the values were obtained:
Settings in all cases: 72 h
[1] = system: HepG2; experiment: relative viability EC50 (midpoint between 100% and the lowest measured viability); higher = less toxic
[2] = system: Calu-3; experiment: as above
[3] = system: Caco-2; experiment: as above
[4] = system: Vero E6; experiment: as above
[5] = system: U2OS; experiment: as above
[6] = system: HepG2; experiment: cell viability relative to DMSO; higher = less toxic
[7] = system: Calu-3; experiment: as above
[8] = system: Caco-2; experiment: as above
[9] = system: Vero E6; experiment: as above
[10] = system: U2OS; experiment: as above
[11] = system: HepG2; experiment: drug sensitivity score (DSS) for viability; higher = more toxic; extreme values may be limits of the assay
[12] = system: Calu-3; experiment: as above
[13] = system: Caco-2; experiment: as above
[14] = system: Vero E6; experiment: as above
[15] = system: U2OS; experiment: as above

Row | SMILES | relative viability EC50 [1] [µM] | relative viability EC50 [2] [µM] | relative viability EC50 [3] [µM] | relative viability EC50 [4] [µM] | relative viability EC50 [5] [µM] | cell viability ([6]; 1 nM) [%] | cell viability ([6]; 10 nM) [%] | cell viability ([6]; 100 nM) [%] | cell viability ([6]; 1000 nM) [%] | cell viability ([6]; 10000 nM) [%] | cell viability ([7]; 1 nM) [%] | cell viability ([7]; 10 nM) [%] | cell viability ([7]; 100 nM) [%] | cell viability ([7]; 1000 nM) [%] | cell viability ([7]; 10000 nM) [%] | cell viability ([8]; 1 nM) [%] | cell viability ([8]; 10 nM) [%] | cell viability ([8]; 100 nM) [%] | cell viability ([8]; 1000 nM) [%] | cell viability ([8]; 10000 nM) [%] | cell viability ([9]; 1 nM) [%] | cell viability ([9]; 10 nM) [%] | cell viability ([9]; 100 nM) [%] | cell viability ([9]; 1000 nM) [%] | cell viability ([9]; 10000 nM) [%] | cell viability ([10]; 1 nM) [%] | cell viability ([10]; 10 nM) [%] | cell viability ([10]; 100 nM) [%] | cell viability ([10]; 1000 nM) [%] | cell viability ([10]; 10000 nM) [%] | drug sensitivity score [11] | drug sensitivity score [12] | drug sensitivity score [13] | drug sensitivity score [14] | drug sensitivity score [15]
1 | C1CCC(/N=C(\NC23CC4CC(CC(C4)C2)C3)N2CCOCC2)CC1 | > 10 | > 10 | > 10 | > 10 | > 10 | 96.1 | 108 | 91.7 | 113 | 108 | 106 | 90.2 | 103 | 89 | 100 | 101 | 91.7 | 102 | 96.7 | 101 | 88.3 | 96 | 90.6 | 98.9 | 104 | 96.4 | 94.8 | 102 | 98.6 | 89.5 | 0 | 0 | 0 | 0 | 0
2 | CN(C)CCn1cc(S(=O)(=O)c2cccc(F)c2)c2cccnc21 | > 10 | > 10 | > 10 | > 10 | > 10 | 106 | 110 | 91.8 | 103 | 97.5 | 116 | 94.7 | 90.4 | 97.5 | 95.3 | 98.2 | 102 | 106 | 98.8 | 103 | 98.6 | 102 | 101 | 105 | 97.7 | 103 | 98.3 | 99.9 | 98.2 | 103 | 0 | 0 | 0 | 0 | 0
3 | O=C(CNC(=O)c1cccc(C(F)(F)F)c1)N[C@@H]1CCN(Cc2ccc(Cl)cc2)C1 [teijin-compound-1] | > 10 | > 10 | > 10 | > 10 | > 10 | 108 | 110 | 107 | 92 | 83.8 | 95.9 | 98.8 | 95.9 | 94.4 | 91.5 | 113 | 108 | 106 | 98.8 | 78 | 109 | 102 | 100 | 98.1 | 94.8 | 95.7 | 98.5 | 95.6 | 99.7 | 91.1 | 1 | 0 | 0.9 | 0 | 0
4 | COc1ccc(CCC(=O)Nc2nc3ccc(Cl)cc3s2)cc1OC | > 10 | > 10 | > 10 | > 10 | > 10 | 96.5 | 110 | 96.3 | 98.3 | 98.1 | 102 | 94.9 | 92.7 | 91.7 | 89.3 | 102 | 94 | 95.9 | 92.1 | 85.4 | 101 | 96.9 | 97.3 | 101 | 95.2 | 101 | 94.7 | 98.5 | 95.1 | 96.3 | 0 | 0.1 | 0.3 | 0 | 0
5 | COP(=O)(OC)OC(c1ccc(Cl)cc1)P(=O)(OC)OC (stereo not given) [mifobate] | > 10 | > 10 | > 10 | > 10 | > 10 | 107 | 98.5 | 92.8 | 99.8 | 93.7 | 93.6 | 94.1 | 85.1 | 96.7 | 96.3 | 106 | 94.5 | 98 | 107 | 105 | 101 | 94.5 | 98 | 92.5 | 100 | 101 | 97.5 | 101 | 94.4 | 98.3 | 0 | 0 | 0 | 0 | 0
6 | CCC[N+]12[C@H](O)[C@@H](CC)[C@@H]3C[C@H]1[C@@H]1N(C)c4ccccc4[C@]14C[C@H]2[C@@H]3[C@H]4O [neo-gilurytmal] | > 10 | > 10 | > 10 | > 10 | > 10 | 93.4 | 99.1 | 92.3 | 97.8 | 104 | 104 | 98 | 96.4 | 100 | 91.4 | 103 | 99.3 | 92.6 | 86.2 | 93.1 | 100 | 99.4 | 98.4 | 97.4 | 95.7 | 100 | 95.7 | 101 | 91.5 | 101 | 0 | 0 | 1.3 | 0 | 0
7 | C[C@]12CCC(=O)C(O)=C1CC[C@@H]1[C@@H]2CC[C@]2(C)C(=O)CC[C@@H]12 [formestane] | > 10 | > 10 | > 10 | > 10 | > 10 | 117 | 111 | 108 | 112 | 98.6 | 98.7 | 96.1 | 91.4 | 93.8 | 93.3 | 114 | 96.9 | 95 | 105 | 117 | 97.8 | 92.4 | 86.7 | 103 | 104 | 102 | 98.2 | 102 | 95.3 | 105 | 0 | 0 | 0 | 0 | 0
8 | CO[C@H]1O[C@@H]2O[C@@]3(C)CC[C@H]4[C@H](C)CC[C@@H]([C@H]1C)[C@@]24OO3 [artemether] | > 10 | > 10 | > 10 | > 10 | > 10 | 97.6 | 101 | 103 | 92.1 | 87.8 | 106 | 108 | 96.3 | 101 | 96.5 | 95.4 | 94.5 | 97.3 | 86.6 | 86.2 | 103 | 106 | 92.1 | 95.9 | 96.9 | 99.1 | 97.1 | 101 | 96.6 | 94.4 | 0.4 | 0 | 0.4 | 0 | 0
9 | CC(C)(C)OC(=O)c1ncn2c1[C@@H]1CCCN1C(=O)c1c(Br)cccc1-2 [bretazenil] | > 10 | > 10 | > 10 | > 10 | > 10 | 83.1 | 94.1 | 95.2 | 105 | 103 | 90 | 92.9 | 98.2 | 99.8 | 96 | 94 | 93.9 | 99.3 | 96.1 | 100 | 91.1 | 100 | 95.5 | 96.5 | 104 | 98.2 | 98.8 | 105 | 92.6 | 98.2 | 0 | 0 | 0 | 0 | 0
10 | COc1cc(OC)cc(C(=O)NNC(=O)Nc2cccc3ccccc23)c1 [TC-O-9311] | > 10 | > 10 | > 10 | > 10 | > 10 | 100 | 101 | 92.3 | 90.9 | 98.7 | 84.2 | 92.1 | 93.6 | 97.8 | 107 | 96.3 | 112 | 101 | 102 | 88 | 102 | 102 | 94.9 | 94.1 | 96 | 99 | 100 | 98.3 | 101 | 98.4 | 0 | 0 | 0 | 0 | 0
11 | CN(C)CC/C=C1\c2ccccc2CSc2ccccc21 [dosulepin] | > 10 | > 10 | > 10 | > 10 | > 10 | 111 | 93.5 | 94.1 | 92.6 | 79.9 | 90.7 | 104 | 101 | 89.3 | 87 | 94.1 | 108 | 100 | 117 | 107 | 93.4 | 97.3 | 104 | 96.5 | 92.7 | 90.7 | 97.5 | 96.4 | 101 | 96.6 | 0.9 | 0.6 | 0 | 0 | 0
12 | COc1cc(C(C)=O)ccc1O [apocynin] | > 10 | > 10 | > 10 | > 10 | > 10 | 95.8 | 95.8 | 104 | 98.8 | 96.8 | 95.2 | 89.6 | 91.5 | 89.5 | 105 | 104 | 94.2 | 100 | 86.8 | 93.9 | 97.8 | 100 | 96.6 | 98.8 | 93.6 | 99.8 | 97.9 | 101 | 96.2 | 98.2 | 0 | 0 | 0 | 0 | 0
13 | CCOC(=O)[C@H](CCc1ccccc1)N[C@H]1CS[C@H](c2cccs2)CN(CC(=O)O)C1=O [temocapril] | > 10 | > 10 | > 10 | > 10 | > 10 | 103 | 98.6 | 108 | 96.7 | 112 | 93.8 | 108 | 95.5 | 103 | 102 | 99.4 | 95.8 | 93.2 | 93.3 | 105 | 98.8 | 105 | 109 | 91.3 | 97.8 | 97.7 | 101 | 94.2 | 99.2 | 95.4 | 0 | 0 | 0 | 0 | 0
14 | C[C@H](CS)C(=O)N1CCC[C@H]1C(=O)O [captopril] | > 10 | > 10 | > 10 | > 10 | > 10 | 99.5 | 95.7 | 105 | 95.3 | 108 | 103 | 111 | 93.4 | 95.4 | 97.4 | 96.1 | 92.8 | 96.8 | 90.9 | 89.6 | 108 | 100 | 107 | 100 | 96.6 | 98.6 | 101 | 94.9 | 98 | 97.3 | 0 | 0 | 0 | 0 | 0
15 | Nc1ncnc(Nc2ccc(Cl)cc2)n1 [chlorazanil] | > 10 | > 10 | > 10 | > 10 | > 10 | 96.4 | 93.9 | 88 | 93.7 | 92.5 | 104 | 101 | 103 | 87.4 | 98.4 | 116 | 97.7 | 96.5 | 101 | 103 | 99.6 | 101 | 91 | 98.6 | 101 | 101 | 96.8 | 97.8 | 98.3 | 99.6 | 0 | 0 | 0 | 0 | 0
